{"source": "patent US10323037B2", "about": "“Aminopyridazinone compounds as protein kinase inhibitors” (Jiangsu Hengrui Medicine Co., Ltd., priority 2014, dated 2019)", "data": [{"test_system": "TMD-8 cells", "test": "Cell proliferation assay (CellTiter-Glo), TMD-8", "format": "cell-based", "conditions": "5-day treatment; read-out: TMD8 cells growth IC50", "protocol": "(§1) Cell proliferation assay: TMD-8 and SU-DHL-1 cells were maintained at 37° C. in a humidified atmosphere with 5% CO2 in the recommended medium and serum concentrations. For cell proliferation assay, cells were seeded in 96-well pates at a density of 5,000 to 10,000 cells per well and cultured overnight at 37° C. in recommended medium supplemented with 5-10% FBS. On the next day, the test articles at various concentrations or vehicle control (0.5% DMSO) were added into cell culture. After 5-day treatment, the growth of cells was assayed by the CellTiter-Glo® Luminestceaent Cell Viability Assay (Promega). IC50 values were calculated using GraphPad Prism by plotting the logarithm of the concentration versus percent inhibition of cell growth as compared with the vehicle control.", "units": {"IC50": "nM"}, "values": [{"smiles": "CN(C)C/C=C/C(=O)N1CC(Cn2cc(-c3ccc(Oc4ccccc4)cc3)c3c(N)n[nH]c(=O)c32)C1", "note": "[Example 47, 4-amino-1-[[1-[(E)-4-(dimethylamino)but-2-enoyl]azetidin-3-yl]methyl]-3-(4-phenoxyphenyl)-6H-pyrrolo[2,3 d]pyridazin-7-one]", "IC50": "≤ 10"}]}, {"test_system": "TMD-8 cells", "test": "Cell proliferation assay (CellTiter-Glo), TMD-8", "format": "cell-based", "conditions": "Homo sapiens, TMD8, 120 h; 5-day treatment; read-out: TMD8 cells growth IC50", "protocol": "as §1", "units": {"IC50": "nM"}, "values": [{"smiles": "C=CC(=O)NC1C2CCC1CC(n1cc(-c3ccc(Oc4ccccc4)cc3)c3c(N)n[nH]c(=O)c31)C2", "note": "(stereo not drawn) [Example 15, N-(3-(4-amino-7-oxo-3-(4-phenoxyphenyl)-6,7-dihydro-1H-pyrrolo[2,3-d]pyridazin-1-yl)bicyclo[3.2.1]octan-8-yl)acrylamide]", "IC50": "≤ 10"}, {"smiles": "CN(C)C/C=C/C(=O)N1CCCC(n2cc(-c3ccc(Oc4cccc(Cl)c4)cc3)c3c(N)n[nH]c(=O)c32)C1", "note": "(stereo not drawn) [Example 67, 4-amino-3-[4-(3-chlorophenoxy)phenyl]-1-[1-[(E)-4-(dimethylamino)but-2-enoyl]-3-piperidyl]-6H-pyrrolo[2,3-d]pyridazin-7-one]", "IC50": "10 to 1000"}, {"smiles": "C=CC(=O)N1CCC[C@H](n2cc(-c3ccc(Oc4c(F)cccc4F)cc3)c3c(N)n[nH]c(=O)c32)C1", "note": "[Example 114, (S)-1-(1-acryloylpiperidin-3-yl)-4-amino-3-(4-(2,6-difluorophenoxy)phenyl)-1H-pyrrolo[2,3-d]pyridazin-7(6H)-one]", "IC50": "≤ 10"}, {"smiles": "CN(C)CC#CC(=O)N1CC[C@@H](n2cc(-c3ccc(Oc4ccccc4F)cc3)c3c(N)n[nH]c(=O)c32)C1", "note": "[Example 99, (R)-4-amino-1-(1-(4-(dimethylamino)but-2-ynoyl)pyrrolidin-3-yl)-3-(4-(2-fluorophenoxy)phenyl)-1H-pyrrolo[2,3-d]pyridazin-7(6H)-one]", "IC50": "10 to 1000"}, {"smiles": "C=CC(=O)N1CCC[C@@H](n2cc(-c3ccc(Oc4ccccc4Cl)cc3)c3c(N)n[nH]c(=O)c32)C1", "note": "[Example 70, (R)-1-(1-acryloylpiperidin-3-yl)-4-amino-3-(4-(2-chlorophenoxy)phenyl)-1H-pyrrolo[2,3-d]pyridazin-7(6H)-one]", "IC50": "≤ 10"}, {"smiles": "CCC(=O)N1CCCC(n2cc(-c3ccc(Oc4ccccc4)cc3)c3c(N)n[nH]c(=O)c32)C1", "note": "(stereo not drawn) [Example 19, 4-amino-3-(4-phenoxyphenyl)-1-(1-propionylpiperidin-3-yl)-1H-pyrrolo[2,3-d]pyridazin-7(6H)-one]", "IC50": "10 to 1000"}, {"smiles": "C=CC(=O)N1CCCC(n2cc(-c3ccc(OC)c(Cl)c3)c3c(N)n[nH]c(=O)c32)C1", "note": "(stereo not drawn) [Example 53, 1-(1-acryloylpiperidin-3-yl)-4-amino-3-(3-chloro-4-methoxyphenyl)-1H-pyrrolo[2,3-d]pyridazin-7(6H)-one]", "IC50": "10 to 1000"}, {"smiles": "CC#CC(=O)N1CC[C@@H](n2cc(-c3ccc(Oc4ccccc4F)cc3)c3c(N)n[nH]c(=O)c32)C1", "note": "[Example 95, (R)-4-amino-1-(1-(but-2-ynoyl)pyrrolidin-3-yl)-3-(4-(2-fluorophenoxy)phenyl)-1H-pyrrolo[2,3-d]pyridazin-7(6H)-one]", "IC50": "≤ 10"}, {"smiles": "C=CC(=O)N1CC(n2cc(-c3ccc(Oc4ccccc4)cc3)c3c(N)n[nH]c(=O)c32)C1", "note": "[Example 5, 4-amino-3-(4-phenoxyphenyl)-1-(1-prop-2-enoylazetidin-3-yl)-6H-pyrrolo[2,3-d]pyridazin-7-one]", "IC50": "10 to 1000"}, {"smiles": "CN(C)C/C=C/C(=O)N1CCC[C@@H](n2cc(-c3ccc(Oc4ccccc4)cc3)c3c(N)n[nH]c(=O)c32)C1", "note": "[Example 26, 4-amino-1-[(3R)-1-[(E)-4-(dimethylamino)but-2-enoyl]-3-piperidyl]-3-(4-phenoxyphenyl)-6H-pyrrolo[2,3-d]pyridazin-7-one]", "IC50": "≤ 10"}, {"smiles": "C=CC(=O)N1CCC[C@@H](n2c(F)c(-c3ccc(Oc4ccccc4)cc3)c3c(N)n[nH]c(=O)c32)C1", "note": "[Example 81, (R)-1-(1-acryloylpiperidin-3-yl)-4-amino-2-fluoro-3-(4-phenoxyphenyl)-1H-pyrrolo[2,3-d]pyridazin-7(6H)-one]", "IC50": "≤ 10"}, {"smiles": "CN(C)C/C=C/C(=O)N1CCCC(n2cc(-c3ccc(Oc4cccc(F)c4)cc3)c3c(N)n[nH]c(=O)c32)C1", "note": "(stereo not drawn) [Example 63, 4-amino-1-[1-[(E)-4-(dimethylamino)but-2-enoyl]-3-piperidyl]-3-[4-(3-fluorophenoxy)phenyl]-6H-pyrrolo[2,3-d]pyridazin-7-one]", "IC50": "≤ 10"}, {"smiles": "C=CC(=O)N1CCC[C@@H](n2cc(-c3ccc(Oc4ccccc4)c(F)c3)c3c(N)n[nH]c(=O)c32)C1", "note": "[Example 74, (R)-1-(1-acryloylpiperidin-3-yl)-4-amino-3-(3-fluoro-4-phenoxyphenyl)-1H-pyrrolo[2,3-d]pyridazin-7(6H)-one]", "IC50": "≤ 10"}, {"smiles": "CNC/C=C/C(=O)N1CCC[C@@H](n2cc(-c3ccc(Oc4ccccc4)cc3)c3c(N)n[nH]c(=O)c32)C1", "note": "[Example 18, 4-amino-1-[(3R)-1-[(E)-4-(methylamino)but-2-enoyl]-3-piperidyl]-3-(4-phenoxyphenyl)-6H-pyrrolo[2,3-d]pyridazin-7-one]", "IC50": "≤ 10"}, {"smiles": "CN(C)C/C=C/C(=O)N1CCC[C@@H](n2cc(-c3ccc(Oc4ccccc4F)cc3)c3c(N)n[nH]c(=O)c32)C1", "note": "[Example 57, 4-amino-1-[(3R)-1-[(E)-4-(dimethylamino)but-2-enoyl]-3-piperidyl]-3-[4-(2-fluorophenoxy)phenyl]-6H-pyrrolo[2,3-d]pyridazin-7-one]", "IC50": "≤ 10"}, {"smiles": "CC#CC(=O)N1CC[C@@H](n2cc(-c3ccc(Oc4ccccc4)cc3)c3c(N)n[nH]c(=O)c32)C1", "note": "[Example 97, (R)-4-amino-1-(1-(but-2-ynoyl)pyrrolidin-3-yl)-3-(4-phenoxyphenyl)-1H-pyrrolo[2,3-d]pyridazin-7(6H)-one]", "IC50": "≤ 10"}, {"smiles": "CN(C)C/C=C/C(=O)N1CCC(n2cc(-c3ccc(Oc4ccccc4)cc3)c3c(N)n[nH]c(=O)c32)CC1", "note": "[Example 44, 4-amino-1-[1-[(E)-4-(dimethylamino)but-2-enoyl]-4-piperidyl]-3-(4-phenoxyphenyl)-6H-pyrrolo[2,3-d]pyridazin-7-one]", "IC50": "10 to 1000"}, {"smiles": "CN(C)C/C=C/C(=O)N1CCCC(n2cc(-c3ccc(Oc4ccc(Cl)cc4)cc3)c3c(N)n[nH]c(=O)c32)C1", "note": "(stereo not drawn) [Example 65, 4-amino-3-[4-(4-chlorophenoxy)phenyl]-1-[1-[(E)-4-(dimethylamino)but-2-enoyl]-3-piperidyl]-6H-pyrrolo[2,3-d]pyridazin-7-one]", "IC50": "10 to 1000"}, {"smiles": "CC#CC(=O)NC1CCC(n2cc(-c3ccc(Oc4ccccc4F)cc3)c3c(N)n[nH]c(=O)c32)C1", "note": "(stereo not drawn) [Example 100, N-(3-(4-amino-3-(4-(2-fluorophenoxy)phenyl)-7-oxo-6,7-dihydro-1H-pyrrolo[2,3-d]pyridazin-1-yl)cyclopentyl)but-2-ynamide]", "IC50": "≤ 10"}, {"smiles": "C=CC(=O)N1CCC[C@@H](n2cc(-c3ccc(Oc4c(F)cccc4F)cc3)c3c(N)n[nH]c(=O)c32)C1", "note": "[Example 58, (R)-1-(1-acryloylpiperidin-3-yl)-4-amino-3-(4-(2,6-difluorophenoxy)phenyl)-1H-pyrrolo[2,3-d]pyridazin-7(6H)-one]", "IC50": "≤ 10"}, {"smiles": "C=CC(=O)N1CC(Cn2cc(-c3ccc(Oc4ccccc4)cc3)c3c(N)n[nH]c(=O)c32)C1", "note": "[Example 12, 4-amino-3-(4-phenoxyphenyl)-1-[(1-prop-2-enoylazetidin-3-yl)methyl]-6H-pyrrolo[2,3-d]pyridazin-7-one]", "IC50": "≤ 10"}, {"smiles": "CN(C)C/C=C/C(=O)N1CC(n2cc(-c3ccc(Oc4ccccc4)cc3)c3c(N)n[nH]c(=O)c32)C1", "note": "[Example 40, 4-amino-1-[1-[(E)-4-(dimethylamino)but-2-enoyl]azetidin-3-yl]-3-(4-phenoxyphenyl)-6H-pyrrolo[2,3-d]pyridazin-7-one]", "IC50": "10 to 1000"}, {"smiles": "C=CC(=O)N1CCC[C@@H](n2cc(-c3ccc(Oc4ccccc4)cc3)c3c(N)n[nH]c(=O)c32)C1", "note": "[Example 1, (R)-1-(1-acryloylpiperidin-3-yl)-4-amino-3-(4-phenoxyphenyl)-1H-pyrrolo[2,3-d]pyridazin-7(6H)-one]", "IC50": "≤ 10"}, {"smiles": "CCN(C/C=C/C(=O)N1CCC[C@@H](n2cc(-c3ccc(Oc4ccccc4)cc3)c3c(N)n[nH]c(=O)c32)C1)C1CC1", "note": "[Example 30, 4-amino-1-[(3R)-1-[(E)-4-[cyclopropyl(ethyl)amino]but-2-enoyl]-3-piperidyl]-3-(4-phenoxyphenyl)-6H-pyrrolo[2,3-d]pyridazin-7-one]", "IC50": "10 to 1000"}, {"smiles": "C=CC(=O)Nc1ccc(-n2cc(-c3ccc(Oc4ccccc4)cc3)c3c(N)n[nH]c(=O)c32)cc1", "note": "[Example 90, N-(4-(4-amino-7-oxo-3-(4-phenoxyphenyl)-6,7-dihydro-1H-pyrrolo[2,3-d]pyridazin-1-yl)phenyl)acrylamide]", "IC50": "≤ 10"}, {"smiles": "C=CC(=O)N1CCC[C@@H](n2nc(-c3ccc(Oc4ccccc4F)cc3)c3c(N)n[nH]c(=O)c32)C1", "note": "[Example 109, (R)-1-(1-acryloylpiperidin-3-yl)-4-amino-3-(4-(2-fluorophenoxy)phenyl)-1H-pyrazolo[3,4-d]pyridazin-7(6H)-one]", "IC50": "≤ 10"}, {"smiles": "C=CC(=O)N1CCCC(n2cc(-c3ccc(Oc4cccc(Cl)c4)c(OC)c3)c3c(N)n[nH]c(=O)c32)C1", "note": "(stereo not drawn) [Example 68, 1-(1-acryloylpiperidin-3-yl)-4-amino-3-(4-(3-chlorophenoxy)-3-methoxyphenyl)-1H-pyrrolo[2,3-d]pyridazin-7(6H)-one]", "IC50": "≤ 10"}, {"smiles": "C=CC(=O)N1CC[C@@H](n2cc(-c3ccc(Oc4ccccc4F)cc3)c3c(N)n[nH]c(=O)c32)C1", "note": "[Example 106, (R)-1-(1-acryloylpyrrolidin-3-yl)-4-amino-3-(4-(2-fluorophenoxy)phenyl)-1H-pyrrolo[2,3-d]pyridazin-7(6H)-one]", "IC50": "≤ 10"}, {"smiles": "N#CN1CC[C@@H](n2cc(-c3ccc(Oc4ccccc4)cc3)c3c(N)n[nH]c(=O)c32)C1", "note": "[Example 107, (R)-3-(4-amino-7-oxo-3-(4-phenoxyphenyl)-6,7-dihydro-1H-pyrrolo[2,3-d]pyridazin-1-yl)pyrrolidine-1-carbonitrile]", "IC50": "1000 to 100000"}]}]}
